Key:
[1] = tested on: chemically regulatable chimeric genes coding for GUS, AHAS or BT; assay: Primer extension assay for mRNA of chemically regulatable chimeric genes; type: in vivo; conditions: callus or regenerated plant material from transgenic plants; level proportional to amount of regulator applied
Method: 50 g of total RNA is lyophilized in a 500 l Eppendorf tube. The RNA is resuspended in 30 l of radiolabeled probe solution and heated to 70′ C. for 10 minutes. The tube is slowly cooled to 37° C. and allowed to incubate overnight. Without removing the tube from the 37° C. water bath, 2 l of 10×reverse-transcriptase buffer (500 mM Tris-HCl, pH 7.5, 400 mM KCl, 30 mM MgCl2), 1 l 5 mg/ml bovine serum albumin, 5 l 100 mM dithiothreitol, 5 l 10×dNTPs (10 mM of each dNTP in H2O), 3 l H 20, 2 l RNasin (80 units), and 2 l reverse transcriptase (400 units) are added and the reaction is incubated at 37° C. for 30 minutes. To stop the reaction, 5 l of 3 M sodium acetate, pH 5, and 150 l absolute ethanol are added. The tube is left at −20° C. for 30 minutes, the precipitate is collected by centrifugation, washed with 80% ethanol and allowed to air-dry. The precipitate is resuspended in 10-20 l of loading dye (90% formamide, 0.05% bromophenol blue, 0.05% xylene cyanol, 1 mM EDTA) and the extension products are separated on a 6% sequencing gel (Maniatis, T. et al., supra). Extension products are visualized by autoradiography.
Plant materials induced and harvested as in Examples 140 to 142 are assayed for the induction of mRNA species by the isolation of RNA and the primer extension assay as described in Example 6.
The level of mRNA is proportional to the amount of regulator applied.

[2] = tested on: cucumber chitinase protein; assay: Cucumber chitinase ELISA in transgenic plants carrying cucumber chitinase genomic constructs after leaf treatment; type: in vivo, tobacco; parameters: key: —: Indicates that sample has no detectable level of chitinase protein
Method: Once the transgenic plants are transferred to soil, they are grown 4-5 weeks before treatment. The following solutions are applied to the leaves with sterile paintbrushes:
3. Methyl benzo-1,2,3-thiadiazole-7-carboxylate. The solution is made by resuspending a wettable powder containing a formulation of the chemical with 25% active ingredient in sterile water at a concentration of 1 mg/ml.
4. Methyl 2,6-dichloroisonicotinate, prepared as above. Alternatively, 30 ul of 10 mM sodium phosphate buffer, pH 7.0, or 30 ul of the same buffer containing tobacco mosaic virus (50-100 pfu/30 ul) is applied to the leaves which have been sprinkled with carborundum. The buffers are distributed over the whole treated leaf by gentle rubbing.
The plants are allowed to continue to grow for seven days. The treated leaves are then harvested, frozen in liquid nitrogen and stored at −80° C. until they are assayed.
Frozen leaf tissue is ground in a mortar with a pestle in the presence of liquid nitrogen to produce a fine powder. 0.33 g of each tissue sample is added to 1 ml extraction buffer (50 mM Tris-HCl, pH 8.5, 0.2M 2-mercaptoethanol, 2 mM phenyl methyl sulfonyl fluoride, 2 mM benzamidine, 10 mM epsilon-aminocaproic acid, 1 mM leueptine) and the sample homogenized for one minute with an Ultra Turrax Mixer (shaft #S25N-8G, Tekmar Co. Cincinnati, Ohio). The samples are then centrifuged at 48,000×g for fifteen minutes at 4° C. and the supernatant removed from the pelleted material. The extracts are diluted at least 1:50 in ELISA diluent (101 mM sodium phosphate, pH 7.4, 140 mM sodium chloride, 0.05% Tween 20, 0.02% sodium azide, 1% BSA).
A microtiter plate is coated with monoclonal antibody specific to the cucumber chitinase protein at 2 ug/ml in borate-buffered saline (100 mM boric acid, 25mM sodium borate, 75 mM sodium chloride; pH 8.5) using 50 ul per well. The plate is incubated overnight at 4° C. The plate is washed with ELISA wash buffer (10 mM Tris-HCl, pH 8.0, 0.05% Tween 20, 3 mM sodium azide) and BSA blocking solution (10 mM sodium phosphate, pH 7.4, 140 mM sodium chloride, 0.02% sodium azide, 1% BSA) is added to completely cover each well. Incubation is for at least 30 minutes at room temperature.
The microtiter plate is washed with ELISA wash buffer and 50 ul of extract is added to the appropriate well. 50 ul of each of 10 chitinase protein standards (ranging from 0 ng/ml to 31.64 ng/ml) was also added to the appropriate well and the plate is incubated for two hours at 4° C. The plate is washed with ELISA wash buffer and 50 ul of rabbit polyclonal antibody to the cucumber chitainase protein (diluted 1:15,000 in ELISA diluent) is added to the well and incubated for one hour at 37° C. After washing with ELISA wash buffer, 50 ul of goat anti-rabbit conjugated to alkaline phosphatase (1:500 in ELISA diluent) is added to each well and incubated at 37° C. for one hour. The plate is then washed and 50 ul alkaline phosphatase substrate solution (0.6 mg/ml p-nitrophenyl phosphate in 0.5 mM magnesium chloride and 10% diethanolamine) is added to each well. After a 30 minute incubation at room temperature, 50 ul of 3N sodium hydroxide is added to each well to stop the reaction.
The plate is read at 405 nm and 492 nm on an HP Genenchem ELISA plate reader. The output values are expressed as A(405 nm)-A(492 nm)−0.092 to allow for correction of p-nitrophenyl phosphate as substrate. The chitinase standards for each plate are graphed logarithmically. The amount of chitinase protein in each sample is determined from the standard curve. If the amount of chitinase in any sample is close to the upper limit of the curve, the sample is assayed again at a greater dilution. Final results are expressed in the table below in ug chitinase per gram tissue.

## O=C(O)c1ccccc1O [Salicylic acid, salicylic acid]
[1]
  level of mRNA of the chimeric gene (GUS, AHAS or BT primer), primer extension assay: elevated levels of mRNA
[2]; line Bam-1 (2001/BamChit), leaves harvested after seven days, water 0.066, buffer —
  ELISA ASSAY RESULTS (ug chitinase/g tissue): —
[2]; line Bam-3 (2001/BamChit), seven days, water —, buffer —
  ELISA ASSAY RESULTS (ug chitinase/g tissue): —
[2]; line Bam-4 (2001/BamChit), seven days, water —, buffer —
  ELISA ASSAY RESULTS (ug chitinase/g tissue): —
[2]; line Bam-8 (2001/BamChit), seven days, water —, buffer —
  ELISA ASSAY RESULTS (ug chitinase/g tissue): —
[2]; line Bam-9 (2001/BamChit), seven days, water —, buffer —
  ELISA ASSAY RESULTS (ug chitinase/g tissue): 0.522 ug chitinase/g tissue
[2]; line Bam-10 (2001/BamChit), seven days, water 0.059, buffer 0.084
  ELISA ASSAY RESULTS (ug chitinase/g tissue): 0.093 ug chitinase/g tissue
[2]; line Bam-12 (2001/BamChit), seven days, water —, buffer —
  ELISA ASSAY RESULTS (ug chitinase/g tissue): —
[2]; line Bam-14 (2001/BamChit), seven days, water —, buffer —
  ELISA ASSAY RESULTS (ug chitinase/g tissue): —
[2]; line Bam-15 (2001/BamChit), seven days, water —, buffer —
  ELISA ASSAY RESULTS (ug chitinase/g tissue): —
[2]; line Bam-16 (2001/BamChit), seven days, water —, buffer —
  ELISA ASSAY RESULTS (ug chitinase/g tissue): 0.690 ug chitinase/g tissue
[2]; line Bam-17 (2001/BamChit), seven days, water —, buffer —
  ELISA ASSAY RESULTS (ug chitinase/g tissue): —
[2]; line Bam-19 (2001/BamChit), seven days, water —, buffer —
  ELISA ASSAY RESULTS (ug chitinase/g tissue): 0.760 ug chitinase/g tissue
[2]; line Bam-21 (2001/BamChit), seven days, water —, buffer —
  ELISA ASSAY RESULTS (ug chitinase/g tissue): —
[2]; line Bam-23 (2001/BamChit), seven days, water —, buffer —
  ELISA ASSAY RESULTS (ug chitinase/g tissue): —
[2]; line Bam-24 (2001/BamChit), seven days, water —, buffer —
  ELISA ASSAY RESULTS (ug chitinase/g tissue): —
[2]; line Bam-25 (2001/BamChit), seven days, water —, buffer —
  ELISA ASSAY RESULTS (ug chitinase/g tissue): 0.522 ug chitinase/g tissue
[2]; line Bam-26 (2001/BamChit), seven days, water —, buffer —
  ELISA ASSAY RESULTS (ug chitinase/g tissue): —
[2]; line Nco-2 (2001/NcoChit), seven days, water —, buffer —
  ELISA ASSAY RESULTS (ug chitinase/g tissue): —
[2]; line Nco-3 (2001/NcoChit), seven days, water —, buffer —
  ELISA ASSAY RESULTS (ug chitinase/g tissue): —
[2]; line Nco-5 (2001/NcoChit), seven days, water —, buffer —
  ELISA ASSAY RESULTS (ug chitinase/g tissue): —
[2]; line Nco-8 (2001/NcoChit), seven days, water —, buffer —
  ELISA ASSAY RESULTS (ug chitinase/g tissue): —
[2]; line Nco-9 (2001/NcoChit), seven days, water —, buffer —
  ELISA ASSAY RESULTS (ug chitinase/g tissue): —
[2]; line Nco-10 (2001/NcoChit), seven days, water —, buffer —
  ELISA ASSAY RESULTS (ug chitinase/g tissue): —
[2]; line Nco-11 (2001/NcoChit), seven days, water —, buffer —
  ELISA ASSAY RESULTS (ug chitinase/g tissue): —
[2]; line Nco-15 (2001/NcoChit), seven days, water —, buffer —
  ELISA ASSAY RESULTS (ug chitinase/g tissue): —
[2]; line Nco-16 (2001/NcoChit), seven days, water 0.555, buffer 0.566
  ELISA ASSAY RESULTS (ug chitinase/g tissue): 0.555 ug chitinase/g tissue
[2]; line Nco-17 (2001/NcoChit), seven days, water —, buffer —
  ELISA ASSAY RESULTS (ug chitinase/g tissue): —
[2]; line Sal-2 (2001/SalChit), seven days, water —, buffer —
  ELISA ASSAY RESULTS (ug chitinase/g tissue): —
[2]; line Sal-3 (2001/SalChit), seven days, water —, buffer —
  ELISA ASSAY RESULTS (ug chitinase/g tissue): —
[2]; line Sal-4 (2001/SalChit), seven days, water —, buffer —
  ELISA ASSAY RESULTS (ug chitinase/g tissue): 0.047 ug chitinase/g tissue
[2]; line Sal-5 (2001/SalChit), seven days, water —, buffer —
  ELISA ASSAY RESULTS (ug chitinase/g tissue): —
[2]; line Sal-7 (2001/SalChit), seven days, water —, buffer —
  ELISA ASSAY RESULTS (ug chitinase/g tissue): —
[2]; line Sal-8 (2001/SalChit), seven days, water —, buffer —
  ELISA ASSAY RESULTS (ug chitinase/g tissue): —
[2]; line Sal-9 (2001/SalChit), seven days, water —, buffer —
  ELISA ASSAY RESULTS (ug chitinase/g tissue): 1.052 ug chitinase/g tissue
[2]; line Sal-11 (2001/SalChit), seven days, water —, buffer —
  ELISA ASSAY RESULTS (ug chitinase/g tissue): —
[2]; line Sal-12 (2001/SalChit), seven days, water —, buffer —
  ELISA ASSAY RESULTS (ug chitinase/g tissue): —
[2]; line Sal-13 (2001/SalChit), seven days, water —, buffer —
  ELISA ASSAY RESULTS (ug chitinase/g tissue): —
[2]; line Sal-14 (2001/SalChit), seven days, water —, buffer —
  ELISA ASSAY RESULTS (ug chitinase/g tissue): —
[2]; line Sal-15 (2001/SalChit), seven days, water —, buffer —
  ELISA ASSAY RESULTS (ug chitinase/g tissue): —

Reference: patent publication US6632981B1, “DNA sequences encoding polypeptides having beta-1,3-glucanase activity” (Novartis Finance Corporation, priority 1988, dated 2003)
